Experimental data taken from PMC6261043, “Characterization of a heat responsive UDP: Flavonoid glucosyltransferase gene in tea plant (Camellia sinensis)” (PLoS ONE, 2018).

Molecular target: T1, UGT73A17 (rUGT73A17, CsUGT73A17) (Camellia sinensis, UniProt W6JMN6, L296I/A466V, form not given)
T1 construct: gene CsUGTC1; full-length ORF (1422 bp, 473 residues) from tea EST library, N-terminal MBP fusion (pMAL-c2X), E. coli Novablue, purified
Assay: HPLC product quantification, Lineweaver-Burk
Type: biochemical
Settings: UDP-glucose as sugar donor, 100 mM Tris-HCl pH 7.0, 30°C

T1 sequence (W6JMN6 entry or part of it L296I/A466V, form open): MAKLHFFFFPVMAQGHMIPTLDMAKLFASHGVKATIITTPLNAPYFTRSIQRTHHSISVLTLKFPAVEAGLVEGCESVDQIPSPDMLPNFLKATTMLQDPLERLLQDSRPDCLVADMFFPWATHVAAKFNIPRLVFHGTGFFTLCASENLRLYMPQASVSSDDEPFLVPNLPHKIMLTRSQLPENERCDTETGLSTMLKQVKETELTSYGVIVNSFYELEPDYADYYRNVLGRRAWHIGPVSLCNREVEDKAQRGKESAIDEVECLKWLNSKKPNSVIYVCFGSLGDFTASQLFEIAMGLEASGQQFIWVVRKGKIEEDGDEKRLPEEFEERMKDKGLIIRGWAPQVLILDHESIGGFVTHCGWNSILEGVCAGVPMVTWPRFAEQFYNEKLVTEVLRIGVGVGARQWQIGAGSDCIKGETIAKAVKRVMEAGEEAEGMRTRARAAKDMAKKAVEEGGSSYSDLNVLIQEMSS

| SMILES | Km |
| --- | --- |
| O=c1cc(-c2ccc(O)c(O)c2)oc2cc(O)cc(O)c12 [luteolin] | 3.2 µM |
| O=c1c(O)c(-c2cc(O)c(O)c(O)c2)oc2cc(O)cc(O)c12 [myricetin] | 8.8 ± 4.3 µM |
| O=C1C[C@@H](c2ccc(O)cc2)Oc2cc(O)cc(O)c21 [naringenin] | 9.5 ± 5 µM |
| O=C(O[C@H]1Cc2c(O)cc(O)cc2O[C@H]1c1ccc(O)c(O)c1)c1cc(O)c(O)c(O)c1 [epicatechin gallate] | 77 ± 5.9 µM |

Second part, the compound after the results:

| Km | SMILES |
| --- | --- |
| 5.5 ± 1.5 µM | O=c1cc(-c2ccc(O)cc2)oc2cc(O)cc(O)c12 [apigenin] |
| 4.6 ± 0.71 µM | O=c1cc(-c2cc(O)c(O)c(O)c2)oc2cc(O)cc(O)c12 [tricetin] |
| 5.2 µM | O=c1c(O)c(-c2ccc(O)cc2)oc2cc(O)cc(O)c12 [kaempferol] |
